{
  "source": "patent US6596512B1",
  "about": "(American Cyanamid Company, priority 1997, dated 2003)",
  "key": {"[1]": {"molecular_target": "T1, CeDAT1 (Caenorhabditis elegans, UniProt Q03614)", "T1 sequence (Q03614 20-615)": "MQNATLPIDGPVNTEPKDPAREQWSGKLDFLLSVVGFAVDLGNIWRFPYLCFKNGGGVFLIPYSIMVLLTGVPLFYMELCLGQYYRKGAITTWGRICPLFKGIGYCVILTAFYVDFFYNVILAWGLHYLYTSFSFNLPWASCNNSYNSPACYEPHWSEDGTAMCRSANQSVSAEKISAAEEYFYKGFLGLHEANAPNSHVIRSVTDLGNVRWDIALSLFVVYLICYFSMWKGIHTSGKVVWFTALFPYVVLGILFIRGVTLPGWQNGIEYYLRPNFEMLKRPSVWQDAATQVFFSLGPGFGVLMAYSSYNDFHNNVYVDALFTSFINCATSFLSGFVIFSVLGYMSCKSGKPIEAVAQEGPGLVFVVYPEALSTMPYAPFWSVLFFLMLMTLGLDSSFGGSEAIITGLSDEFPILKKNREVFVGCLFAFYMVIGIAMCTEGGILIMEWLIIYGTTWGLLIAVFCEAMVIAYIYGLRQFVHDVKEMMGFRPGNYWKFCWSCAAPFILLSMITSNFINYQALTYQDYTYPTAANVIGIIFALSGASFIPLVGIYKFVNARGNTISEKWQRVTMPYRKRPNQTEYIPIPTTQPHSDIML", "type": "cell-based, C. elegans", "conditions": "radiolabeled substrates each at 50 nm, pCeDAT1"}, "[2]": {"tested_on": "CeDAT2 (Caenorhabditis elegans)", "sequence (Q03614 whole entry)": "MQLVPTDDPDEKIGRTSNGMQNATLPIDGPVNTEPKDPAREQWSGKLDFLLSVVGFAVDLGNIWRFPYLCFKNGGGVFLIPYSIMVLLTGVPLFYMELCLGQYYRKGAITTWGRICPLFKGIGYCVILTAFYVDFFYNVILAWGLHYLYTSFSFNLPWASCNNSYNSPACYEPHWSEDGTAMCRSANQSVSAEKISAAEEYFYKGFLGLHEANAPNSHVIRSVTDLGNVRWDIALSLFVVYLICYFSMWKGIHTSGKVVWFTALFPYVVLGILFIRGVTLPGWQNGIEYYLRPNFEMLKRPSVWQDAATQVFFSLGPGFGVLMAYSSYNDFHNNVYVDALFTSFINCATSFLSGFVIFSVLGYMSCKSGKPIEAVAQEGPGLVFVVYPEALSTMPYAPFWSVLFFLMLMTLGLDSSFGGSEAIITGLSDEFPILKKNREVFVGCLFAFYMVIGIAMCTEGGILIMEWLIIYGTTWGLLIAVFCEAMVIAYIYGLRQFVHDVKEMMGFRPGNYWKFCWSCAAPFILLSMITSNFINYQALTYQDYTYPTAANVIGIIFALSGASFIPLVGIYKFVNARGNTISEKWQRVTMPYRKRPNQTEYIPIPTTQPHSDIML", "type": "cell-based, C. elegans", "conditions": "radiolabeled substrates each at 50 nm, pCeDAT2"}, "[3]": {"molecular_target": "T1, CeDAT1", "assay": "cell-based", "set-up": "species or system C. elegans"}, "[4]": {"molecular_target": "T1, CeDAT1", "assay": "Saturation kinetics of catecholamine transport in pCeDAT1 transfected HeLa cells", "type": "cell-based, C. elegans", "conditions": "radiolabeled substrate"}, "[5]": {"substrate": "NC[C@H](O)c1ccc(O)c(O)c1", "assay": "cells, lysate or membranes", "conditions": "37.0 °C"}},
  "data": [
    {"molecule": "NCCc1c[nH]c2ccc(O)cc12", "note": "[5HT, Serotonin]", "values": [
      {"measurement": "Transport of radiolabeled substrate", "setting": "[1]", "value": "little or no transport"},
      {"measurement": "Transport of radiolabeled substrate", "setting": "[2]", "value": "transported only at very low levels"}
    ]},
    {"molecule": "NCCc1ccc(O)c(O)c1", "note": "[DA, Dopamine]", "values": [
      {"measurement": "Ki", "setting": "[3]", "value": 146, "unit": "nM"},
      {"measurement": "Potency as inhibitor of transport relative to L-NE", "setting": "[3]; pCeDAT1, HeLa cells, DA versus L-NE", "value": "~10", "unit": "fold"},
      {"measurement": "Vmax of transport", "setting": "[4]", "value": 0.6, "unit": "pmol/10^6 cells/min"},
      {"measurement": "Extent of transport relative to NE", "setting": "[1]", "value": "~2", "unit": "fold"}
    ]},
    {"molecule": "CNC[C@H](O)c1ccc(O)c(O)c1", "note": "[Epi]", "values": [
      {"measurement": "Transport of radiolabeled substrate", "setting": "[1]", "value": "little or no transport"},
      {"measurement": "Transport of radiolabeled substrate", "setting": "[2]", "value": "transported only at very low levels"}
    ]},
    {"molecule": "Fc1ccc(C(OCCN2CCN(CCCc3ccccc3)CC2)c2ccc(F)cc2)cc1", "note": "[GBR12909]", "values": [
      {"measurement": "Ki", "setting": "[3]", "value": 70, "unit": "nM"}
    ]},
    {"molecule": "NC[C@H](O)c1ccc(O)c(O)c1", "note": "[NE, Norepinephrine]", "values": [
      {"measurement": "Vmax of transport", "setting": "[4]", "value": 0.46, "unit": "pmol/10^6 cells/min"}
    ]},
    {"molecule": "NCCc1ccc(O)cc1", "note": "[Tyramine]", "values": [
      {"measurement": "Ki", "setting": "[3]", "value": 827, "unit": "nM"}
    ]},
    {"molecule": "COC(=O)[C@H]1[C@@H](OC(=O)c2ccccc2)C[C@@H]2CC[C@H]1N2C", "note": "[cocaine]", "values": [
      {"measurement": "Ki", "setting": "[3]", "value": 3500, "unit": "nM"}
    ]},
    {"molecule": "OC1(c2ccc(Cl)cc2)c2ccccc2C2=NCCN21", "note": "(stereo not drawn) [mazindol]", "values": [
      {"measurement": "Ki", "setting": "[3]", "value": 8, "unit": "nM"}
    ]},
    {"molecule": "CNCCC(Oc1ccccc1OC)c1ccccc1", "note": "(stereo not drawn) [nisoxetine]", "values": [
      {"measurement": "Ki", "setting": "[3]", "value": 3, "unit": "nM"}
    ]},
    {"molecule": "CeDAT1 (Caenorhabditis elegans) (protein) MQNATLPIDGPVNTEPKDPAREQWSGKLDFLLSVVGFAVDLGNIWRFPYLCFKNGGGVFLIPYSIMVLLTGVPLFYMELCLGQYYRKGAITTWGRICPLFKGIGYCVILTAFYVDFFYNVILAWGLHYLYTSFSFNLPWASCNNSYNSPACYEPHWSEDGTAMCRSANQSVSAEKISAAEEYFYKGFLGLHEANAPNSHVIRSVTDLGNVRWDIALSLFVVYLICYFSMWKGIHTSGKVVWFTALFPYVVLGILFIRGVTLPGWQNGIEYYLRPNFEMLKRPSVWQDAATQVFFSLGPGFGVLMAYSSYNDFHNNVYVDALFTSFINCATSFLSGFVIFSVLGYMSCKSGKPIEAVAQEGPGLVFVVYPEALSTMPYAPFWSVLFFLMLMTLGLDSSFGGSEAIITGLSDEFPILKKNREVFVGCLFAFYMVIGIAMCTEGGILIMEWLIIYGTTWGLLIAVFCEAMVIAYIYGLRQFVHDVKEMMGFRPGNYWKFCWSCAAPFILLSMITSNFINYQALTYQDYTYPTAANVIGIIFALSGASFIPLVGIYKFVNARGNTISEKWQRVTMPYRKRPNQTEYIPIPTTQPHSDIML", "values": [
      {"measurement": "Km", "setting": "[5]", "value": 4.1, "unit": "µM"}
    ]}
  ]
}
